Reference: publication PMC12543159, “Characterization and ligand binding properties of a fatty acid- and retinol- binding protein (Hp-FAR-2) from Heligmosomoides polygyrus” (PLOS Neglected Tropical Diseases, 2025)
pKd: −log10 of the molar value.

How the values were obtained:
Type in all cases: binding
Hp-FAR-2 [1] = target: T1, Hp-FAR-2 (Heligmosomoides polygyrus, UniProt A0A183GLK6); test: DAUDA displacement fluorescence competition ([…] excess, […])
T1 construct: mature Hp-FAR-2, amino acids 18–180, N-terminal 6-His-tag
T1 sequence (A0A183GLK6 entry or part of it): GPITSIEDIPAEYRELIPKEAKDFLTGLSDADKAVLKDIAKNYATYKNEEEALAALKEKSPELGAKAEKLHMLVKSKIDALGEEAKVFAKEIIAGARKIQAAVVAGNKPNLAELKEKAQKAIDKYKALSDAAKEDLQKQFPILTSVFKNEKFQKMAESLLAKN

Hp-FAR-2 [2] = target: T1, Hp-FAR-2; test: fluorescence titration of DAUDA with purified Hp-FAR-2 (blue shift)
Hp-FAR-2 [3] = target: T1, Hp-FAR-2; test: DAUDA displacement fluorescence competition ([…] and […])
Hp-FAR-2 [4] = target: T1, Hp-FAR-2; test: retinol fluorescence titration with purified Hp-FAR-2

SMILES | DAUDA displacement fluorescence competition (10-fold excess, 10 μM) (Hp-FAR-2 [1]) | DAUDA displacement fluorescence competition (1:1 and 1:10) (Hp-FAR-2 [3]) | further results
CCCCC/C=C\C/C=C\C/C=C\C/C=C\CCCC(=O)O [AA, arachidonic acid] | All fatty acids except α-linolenic acid significantly displaced DAUDA compared to DAUDA alone |  | 
CN(C)c1cccc2c(S(=O)(=O)NCCCCCCCCCCC(=O)O)cccc12 [DAUDA] |  |  | pKd (Hp-FAR-2 [2]): 5.50
CC/C=C\C/C=C\C/C=C\C/C=C\C/C=C\C/C=C\CCC(=O)O [DHA, docosahexaenoic acid] |  | Oleic acid, linoleic acid, and docosahexaenoic acid all significantly displaced DAUDA | 
CC/C=C\C/C=C\C/C=C\C/C=C\C/C=C\CCCC(=O)O [EPA, eicosapentaenoic acid] | All fatty acids except α-linolenic acid significantly displaced DAUDA compared to DAUDA alone |  | 
CCCCC/C=C\C/C=C\CCCCCCCC(=O)O [LA, linoleic acid] |  | Oleic acid, linoleic acid, and docosahexaenoic acid all significantly displaced DAUDA | 
CCCCCCCC/C=C\CCCCCCCC(=O)O [OA, oleic acid] |  | Oleic acid, linoleic acid, and docosahexaenoic acid all significantly displaced DAUDA | 
CCCCCCCCCCCCCCCC(=O)O [PA, palmitic acid] | All fatty acids except α-linolenic acid significantly displaced DAUDA compared to DAUDA alone |  | 
CC1=C(/C=C/C(C)=C/C=C/C(C)=C/CO)C(C)(C)CCC1 [retinol] |  |  | pKd (Hp-FAR-2 [4]): 5.49
